In patent US6605145B1, “Alkylformamide surfactants” (Air Products and Chemicals, Inc., priority 1999, dated 2003):

Columns and labels:
Format in all cases: physicochemical
[1] = Dynamic surface tension of aqueous solutions, maximum bubble pressure method
Source text: where R is a C5 to C11 alkyl group, provided that the organic compound is not an azole derivative fungicide. […] The maximum-bubble-pressure method of measuring surface tension is described in Langmuir 1986, 2, 428-432, which is incorporated by reference.
In the following Examples dynamic surface tension data were obtained for aqueous solutions of various compounds using the maximum bubble pressure method at bubble rates from 0.1 bubbles/second (b/s) to 20 b/s. […] In practical terms, high bubble rates correspond to high printing speeds in lithographic printing, high spray or roller velocities in coating applications, and rapid application rates for agricultural products.

[2] = Solubility limit in water from plot of ln(conc.) vs surface tension at 0.1 b/s
Source text: A plot of In(conc.) vs surface tension observed at 0.1 b/s was used to determine that the solubility limit of this material is 0.1 wt %.

[3] = Foam test based upon ASTM D 1173-53
Protocol: The foaming properties of 0.1 wt % solutions of the N-octylpyrrolidone and the alkylformamide surfactants of this invention were examined using a procedure based upon ASTM D 1173-53. In this test, a 0.1 wt % solution of the surfactant is added from an elevated foam pipette to a foam receiver containing the same solution. The foam height is measured at the completion of the addition (“Initial Foam Height”) and the time required for the foam to dissipate at the air-liquid interface (“Time to 0 Foam”) is recorded. This test provides a comparison between the foaming characteristics of various surfactant solutions. In general, in coatings, inks, and agricultural formulations, foam is undesirable because it complicates handling and can lead to coating and print defects, and to inefficient application of agricultural materials.

## CCCCCCNC=O [n-HF, n-hexylformamide]
[1]; 0.1 wt % in water, 0.1 b/s (Table 4)
  Dynamic Surface Tension: 56.0 dynes/cm
[1]; 0.1 wt % in water, 1 b/s (Table 4)
  Dynamic Surface Tension: 57.6 dynes/cm
[1]; 0.1 wt % in water, 6 b/s (Table 4)
  Dynamic Surface Tension: 58.8 dynes/cm
[1]; 0.1 wt % in water, 15 b/s (Table 4)
  Dynamic Surface Tension: 60.3 dynes/cm
[1]; 0.1 wt % in water, 20 b/s (Table 4)
  Dynamic Surface Tension: 60.6 dynes/cm
[1]; 0.5 wt % in water, 0.1 b/s
  Dynamic Surface Tension: 37.2 dynes/cm
[1]; 0.5 wt % in water, 1 b/s
  Dynamic Surface Tension: 38.0 dynes/cm
[1]; 0.5 wt % in water, 6 b/s
  Dynamic Surface Tension: 38.8 dynes/cm
[1]; 0.5 wt % in water, 15 b/s
  Dynamic Surface Tension: 40.1 dynes/cm
[1]; 0.5 wt % in water, 20 b/s
  Dynamic Surface Tension: 40.3 dynes/cm
[1]; 1.0 wt % in water, 0.1 b/s
  Dynamic Surface Tension: 28.4 dynes/cm
[1]; 1.0 wt % in water, 1 b/s
  Dynamic Surface Tension: 29.0 dynes/cm
[1]; 1.0 wt % in water, 6 b/s
  Dynamic Surface Tension: 29.6 dynes/cm
[1]; 1.0 wt % in water, 15 b/s
  Dynamic Surface Tension: 30.1 dynes/cm
[1]; 1.0 wt % in water, 20 b/s
  Dynamic Surface Tension: 31.1 dynes/cm
[1]; 1.0 wt % solution, 20 b/s
  surface tension: 31.1 dyne/cm
[1]; 2.0 wt % in water, 0.1 b/s
  Dynamic Surface Tension: 27.4 dynes/cm
[1]; 2.0 wt % in water, 1 b/s
  Dynamic Surface Tension: 28.4 dynes/cm
[1]; 2.0 wt % in water, 6 b/s
  Dynamic Surface Tension: 29.3 dynes/cm
[1]; 2.0 wt % in water, 15 b/s
  Dynamic Surface Tension: 30.7 dynes/cm
[1]; 2.0 wt % in water, 20 b/s
  Dynamic Surface Tension: 30.3 dynes/cm
[2]
  solubility limit: 1.1 wt %
[3]
  foaming of aqueous solutions (in words): almost no foam

## CCCCCCCCNC=O [n-OF, n-octylformamide]
[1]; 0.03 wt % in water, 0.1 b/s
  Dynamic Surface Tension: 42.8 dyne/cm
[1]; 0.03 wt % in water, 1 b/s
  Dynamic Surface Tension: 46.1 dyne/cm
[1]; 0.03 wt % in water, 6 b/s
  Dynamic Surface Tension: 52.2 dyne/cm
[1]; 0.03 wt % in water, 15 b/s
  Dynamic Surface Tension: 58.5 dyne/cm
[1]; 0.03 wt % in water, 20 b/s
  Dynamic Surface Tension: 60.4 dyne/cm
[1]; 0.05 wt % in water, 0.1 b/s
  Dynamic Surface Tension: 35.6 dyne/cm
[1]; 0.05 wt % in water, 1 b/s
  Dynamic Surface Tension: 37.7 dyne/cm
[1]; 0.05 wt % in water, 6 b/s
  Dynamic Surface Tension: 42.5 dyne/cm
[1]; 0.05 wt % in water, 15 b/s
  Dynamic Surface Tension: 48.6 dyne/cm
[1]; 0.05 wt % in water, 20 b/s
  Dynamic Surface Tension: 50.5 dyne/cm
[1]; 0.07 wt % in water, 0.1 b/s
  Dynamic Surface Tension: 30.9 dyne/cm
[1]; 0.07 wt % in water, 1 b/s
  Dynamic Surface Tension: 32.5 dyne/cm
[1]; 0.07 wt % in water, 6 b/s
  Dynamic Surface Tension: 36.3 dyne/cm
[1]; 0.07 wt % in water, 15 b/s
  Dynamic Surface Tension: 41.5 dyne/cm
[1]; 0.07 wt % in water, 20 b/s
  Dynamic Surface Tension: 43.7 dyne/cm
[1]; 0.1 wt % in water, 1 b/s
  Dynamic Surface Tension: 26.6 dyne/cm
[1]; 0.1 wt % in water, 6 b/s
  Dynamic Surface Tension: 28.7 dyne/cm
[1]; 0.1 wt % in water, 15 b/s
  Dynamic Surface Tension: 34.4 dyne/cm
[2]
  solubility limit: 0.1 wt %

## CCCCCCCCCCNC=O [drawing 16, n-decylformamide]
[3]; 0.1 wt % solution
  Initial Foam Height: 2.4 cm
  Time to 0 Foam: 12 s

## CCCCCCCCCCNC=O [n-DF, n-decylformamide]
[1]; 0.005 wt % in water, 0.1 b/s
  Dynamic Surface Tension: 53.4 dyne/cm
[1]; 0.005 wt % in water, 1 b/s
  Dynamic Surface Tension: 67.1 dyne/cm
[1]; 0.005 wt % in water, 6 b/s
  Dynamic Surface Tension: 70.6 dyne/cm
[1]; 0.005 wt % in water, 15 b/s
  Dynamic Surface Tension: 72.5 dyne/cm
[1]; 0.005 wt % in water, 20 b/s
  Dynamic Surface Tension: 73.1 dyne/cm
[1]; 0.007 wt % in water, 0.1 b/s
  Dynamic Surface Tension: 36.3 dyne/cm
[1]; 0.007 wt % in water, 1 b/s
  Dynamic Surface Tension: 59.2 dyne/cm
[1]; 0.007 wt % in water, 6 b/s
  Dynamic Surface Tension: 70.3 dyne/cm
[1]; 0.007 wt % in water, 15 b/s
  Dynamic Surface Tension: 72.3 dyne/cm
[1]; 0.007 wt % in water, 20 b/s
  Dynamic Surface Tension: 72.9 dyne/cm
[1]; 0.01 wt % in water, 0.1 b/s
  Dynamic Surface Tension: 32.4 dyne/cm
[1]; 0.01 wt % in water, 1 b/s
  Dynamic Surface Tension: 55.4 dyne/cm
[1]; 0.01 wt % in water, 6 b/s
  Dynamic Surface Tension: 69.1 dyne/cm
[1]; 0.01 wt % in water, 15 b/s
  Dynamic Surface Tension: 72.5 dyne/cm
[1]; 0.01 wt % in water, 20 b/s
  Dynamic Surface Tension: 72.8 dyne/cm
[2]
  solubility limit: 0.01 wt %

## CCCCCCCCN1CCCC1=O [N-n-Octylpyrrolidone, reference compound]
[1]; 0.003 wt % in water, 0.1 b/s
  Dynamic Surface Tension: 65.1 dyne/cm
[1]; 0.003 wt % in water, 1 b/s
  Dynamic Surface Tension: 68.6 dyne/cm
[1]; 0.003 wt % in water, 6 b/s
  Dynamic Surface Tension: 70.8 dyne/cm
[1]; 0.003 wt % in water, 15 b/s
  Dynamic Surface Tension: 71.4 dyne/cm
[1]; 0.003 wt % in water, 20 b/s
  Dynamic Surface Tension: 71.1 dyne/cm
[1]; 0.03 wt % in water, 0.1 b/s
  Dynamic Surface Tension: 46.5 dyne/cm
[1]; 0.03 wt % in water, 1 b/s
  Dynamic Surface Tension: 49.3 dyne/cm
[1]; 0.03 wt % in water, 6 b/s
  Dynamic Surface Tension: 54.4 dyne/cm
[1]; 0.03 wt % in water, 15 b/s
  Dynamic Surface Tension: 58.7 dyne/cm
[1]; 0.03 wt % in water, 20 b/s
  Dynamic Surface Tension: 59.6 dyne/cm
[1]; 0.07 wt % in water, 0.1 b/s
  Dynamic Surface Tension: 35.2 dyne/cm
[1]; 0.07 wt % in water, 1 b/s
  Dynamic Surface Tension: 36.6 dyne/cm
[1]; 0.07 wt % in water, 6 b/s
  Dynamic Surface Tension: 39.6 dyne/cm
[1]; 0.07 wt % in water, 15 b/s
  Dynamic Surface Tension: 43.0 dyne/cm
[1]; 0.07 wt % in water, 20 b/s
  Dynamic Surface Tension: 43.9 dyne/cm
[1]; 0.1 wt % in water, 0.1 b/s
  Dynamic Surface Tension: 29.9 dyne/cm
[1]; 0.1 wt % in water, 1 b/s
  Dynamic Surface Tension: 31.0 dyne/cm
[1]; 0.1 wt % in water, 1 b/s, listed as n-octylpyrrolidone
  Dynamic Surface Tension: below 30 dyne/cm
[1]; 0.1 wt % in water, 6 b/s
  Dynamic Surface Tension: 33.4 dyne/cm
[1]; 0.1 wt % in water, 15 b/s
  Dynamic Surface Tension: 36.5 dyne/cm
[1]; 0.1 wt % in water, 20 b/s
  Dynamic Surface Tension: 37.2 dyne/cm
[1]; 0.1 wt % in water, 20 b/s, listed as n-octylpyrrolidone
  Dynamic Surface Tension: below 40 dyne/cm
[1]; 0.21 wt % in water, 0.1 b/s
  Dynamic Surface Tension: 27.6 dyne/cm
[1]; 0.21 wt % in water, 1 b/s
  Dynamic Surface Tension: 27.8 dyne/cm
[1]; 0.21 wt % in water, 6 b/s
  Dynamic Surface Tension: 28.4 dyne/cm
[1]; 0.21 wt % in water, 15 b/s
  Dynamic Surface Tension: 30.0 dyne/cm
[1]; 0.21 wt % in water, 20 b/s
  Dynamic Surface Tension: 30.6 dyne/cm
[3]; 0.1 wt % solution
  Initial Foam Height: 4.0 cm
  cm Foam after 5 min: 1.0 cm
[3]
  foaming of aqueous solutions (in words): quite foamy

## CCCCC(CC)CNC=O (stereo not drawn) [drawing 14, 2-ethylhexylformamide]
[3]; 0.1 wt % solution
  Initial Foam Height: 0.5 cm
  Time to 0 Foam: 4 s

## CCCCCCCCNC=O [drawing 13, n-octylformamide]
[3]; 0.1 wt % solution
  Initial Foam Height: 0.9 cm
  Time to 0 Foam: 5 s

## CCCCC(CC)CNC=O (stereo not drawn) [2-EHF, 2-ethylhexylformamide]
[1]; 0.03 wt % in water, 0.1 b/s
  Dynamic Surface Tension: 51.1 dyne/cm
[1]; 0.03 wt % in water, 1 b/s
  Dynamic Surface Tension: 53.0 dyne/cm
[1]; 0.03 wt % in water, 6 b/s
  Dynamic Surface Tension: 57.0 dyne/cm
[1]; 0.03 wt % in water, 15 b/s
  Dynamic Surface Tension: 60.1 dyne/cm
[1]; 0.03 wt % in water, 20 b/s
  Dynamic Surface Tension: 60.3 dyne/cm
[1]; 0.05 wt % in water, 0.1 b/s
  Dynamic Surface Tension: 45.9 dyne/cm
[1]; 0.05 wt % in water, 1 b/s
  Dynamic Surface Tension: 47.2 dyne/cm
[1]; 0.05 wt % in water, 6 b/s
  Dynamic Surface Tension: 49.9 dyne/cm
[1]; 0.05 wt % in water, 15 b/s
  Dynamic Surface Tension: 52.6 dyne/cm
[1]; 0.05 wt % in water, 20 b/s
  Dynamic Surface Tension: 53.3 dyne/cm
[1]; 0.07 wt % in water, 0.1 b/s
  Dynamic Surface Tension: 42.8 dyne/cm
[1]; 0.07 wt % in water, 1 b/s
  Dynamic Surface Tension: 43.8 dyne/cm
[1]; 0.07 wt % in water, 6 b/s
  Dynamic Surface Tension: 46.0 dyne/cm
[1]; 0.07 wt % in water, 15 b/s
  Dynamic Surface Tension: 48.3 dyne/cm
[1]; 0.07 wt % in water, 20 b/s
  Dynamic Surface Tension: 49.1 dyne/cm
[1]; 0.1 wt % in water, 0.1 b/s
  Dynamic Surface Tension: 39.1 dyne/cm
[1]; 0.1 wt % in water, 1 b/s
  Dynamic Surface Tension: 39.9 dyne/cm
[1]; 0.1 wt % in water, 6 b/s
  Dynamic Surface Tension: 41.6 dyne/cm
[1]; 0.1 wt % in water, 15 b/s
  Dynamic Surface Tension: 43.5 dyne/cm
[1]; 0.1 wt % in water, 20 b/s
  Dynamic Surface Tension: 44.2 dyne/cm
[1]; 0.2 wt % in water, 0.1 b/s
  Dynamic Surface Tension: 32.1 dyne/cm
[1]; 0.2 wt % in water, 1 b/s
  Dynamic Surface Tension: 32.4 dyne/cm
[1]; 0.2 wt % in water, 6 b/s
  Dynamic Surface Tension: 33.3 dyne/cm
[1]; 0.2 wt % in water, 15 b/s
  Dynamic Surface Tension: 34.9 dyne/cm
[1]; 0.2 wt % in water, 20 b/s
  Dynamic Surface Tension: 35.5 dyne/cm
[2]
  solubility limit: 0.2 wt %
